According to patent US8133907B2, “Pyridine derivatives as dipeptedyl peptidase inhibitors” (Eli Lilly and Company, priority 2005, dated 2012):
Counter-ions that a name gives are not always drawn.

Biological target: T1, human recombinant DPIV enzyme (Homo sapiens, UniProt P27487)
T1 construct: Secreted DPIV (lacking membrane anchor) is enriched from HEK293 cell culture supernatant; made in house; host or cells: HEK293
Assay: Human Recombinant DPIV Activity Assay (fluorometric end point, Gly-Pro-AMC substrate)
Assay type: biochemical
Settings: enriched human recombinant DPIV enzyme (21.3 μU/μl), Gly-Pro-AMC 0.02 mM, 12 points concentration response curve, duplicate
Method: Human Recombinant DPIV Activity Assay
The DPIV assay uses a fluorometric end point assay (excitation 355 nm; emission 460 nm), enriched human recombinant DPIV enzyme (21.3 μU/μl), and Gly-Pro-AMC (Bachem I-1225) as substrate (0.02 mM). Secreted DPIV (lacking membrane anchor) is enriched from HEK293 cell culture supernatant by ultrafiltration, ultra-centrifugation, and size-exclusion chromatography. IC50 values of the compounds are calculated based on a 12 points concentration response curve. Each concentration is measured in duplicate. The assay is validated by plate variability and conformity, inter-plate variability, signal window, and minimum significant ration of IC50. A MSR is calculated based on a test/retest analysis and a retrospective analysis. The MSR value is 1.8.

T1 sequence (P27487 29-766 limits assumed): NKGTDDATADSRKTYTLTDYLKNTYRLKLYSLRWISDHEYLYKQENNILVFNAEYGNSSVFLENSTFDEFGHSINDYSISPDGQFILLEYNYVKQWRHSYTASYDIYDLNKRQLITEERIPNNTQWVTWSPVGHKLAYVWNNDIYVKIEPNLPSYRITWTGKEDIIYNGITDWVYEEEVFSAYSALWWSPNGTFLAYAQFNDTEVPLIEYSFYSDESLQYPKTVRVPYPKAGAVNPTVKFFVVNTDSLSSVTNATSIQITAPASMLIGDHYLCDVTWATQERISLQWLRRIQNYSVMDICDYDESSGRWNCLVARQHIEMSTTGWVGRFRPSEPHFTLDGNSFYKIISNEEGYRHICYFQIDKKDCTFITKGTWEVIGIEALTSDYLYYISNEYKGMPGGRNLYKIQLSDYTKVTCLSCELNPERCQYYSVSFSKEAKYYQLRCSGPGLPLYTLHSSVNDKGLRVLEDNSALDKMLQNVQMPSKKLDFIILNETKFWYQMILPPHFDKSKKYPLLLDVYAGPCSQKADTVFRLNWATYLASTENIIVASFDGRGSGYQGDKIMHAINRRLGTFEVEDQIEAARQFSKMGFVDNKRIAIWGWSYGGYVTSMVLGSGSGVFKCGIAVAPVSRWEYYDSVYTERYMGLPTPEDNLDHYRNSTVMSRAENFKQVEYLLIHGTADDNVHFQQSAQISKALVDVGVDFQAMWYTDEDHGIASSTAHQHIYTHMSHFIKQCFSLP

IC50 [nM]	SMILES
342	CC(C)(C)NC(=O)c1cccnc1C[C@H](O)[C@H](N)Cc1cc(F)ccc1C(F)(F)F (racemic) [Example 10, 2-[(2SR,3RS)-3-Amino-4-(5-fluoro-2-trifluoromethylphenyl)-2-hydroxybutyl]-N-tert-butylnicotinamide Dihydrochloride]
30	Cc1ccc(C)c(C[C@@H](N)[C@@H](O)Cc2ncccc2C(=O)NC(C)(C)C)c1 [Example 8, 2-[(2S,3R)-3-Amino-4-(2,5-dimethyl-phenyl)-2-hydroxy-butyl]-N-tert-butyl-nicotinamide Dihydrochloride]
22	CC(C)(NC(=O)c1cccnc1C[C@H](O)[C@H](N)Cc1ccccc1F)c1ccccc1 [Example 23, 2-[(2S,3R)-3-Amino-4-(2-fluoro-phenyl)-2-hydroxy-butyl]-N-(1-methyl-1-phenyl-ethyl)-nicotinamide Dihydrochloride]
232	N[C@H](Cc1ccccc1F)[C@@H](O)Cc1ccccn1 [Example 27, (2S,3R)-3-Amino-4-(2,-fluoro-phenyl)-1-pyridin-2-yl-butan-2-ol Dihydrochloride]
